Reference: patent publication US20050112573A1, “Method of detecting toxic substance” (priority 2001, published 2005)

Tested on: yeast genes (level of expressed mRNA)
Test: DNA chip analysis of expressed mRNA of yeast genes after 2 h culture with a toxic chemical substance
Assay type: cell-based, Saccharomyces cerevisiae S288C
Conditions: for The level of expressed mRNA in the presence of chemical substance/: ratio to no chemical; for The level of expressed mRNA in the presence of chemical substance/ (ratio to absence): transport facilitation protein gene; for The level of expressed mRNA in the presence of chemical substance/ (ratio to absence of chemical substance): stress protein genes, DNA chip
Method: Yeast (Saccharomyces cerevtisiae S288C (α SUC2mal mel gap2 CUP1)) were cultured at 25° C. on YPD medium (yeast extract 1%, polypepton 2%, glucose 2%). One of toxic chemical substances was added to the cell at logarithmic growth phase, and the cell was further cultured for two hours. Cell was cultured without any chemical substance in the same condition, and was used as control. Concentrations of the chemical substances were defined to inhibit the growth of the yeast but not lead to death.
After the completion of cultivation, the culture was centrifuged to collect the cells. To the cells, sodium acetate buffer (50 mM sodium acetate, 10 mM EDTA, 1% SDS) was added, and the mixture was shaken at 65° C. for five minutes, followed by returning to room temperature, and obtaining the supernatant, which procedure was repeated two times. To the supernatant, ½ amount of a solution of phenol/chloroform was added, and the mixture was centrifuged to give a supernatant, which was added with an equal amount of chloroform, and the mixture was centrifuged to give a supernatant. To the supernatant, an equal amount of isopropanol containing 0.3 M sodium acetate was added, and the mixture was allowed to stand at room temperature for 30 minutes, after which the mixture was centrifuged to give a sediment of the whole RNAs. Seventy % ethanol was added to the sediment, and the mixture was again centrifuged to give a sediment, which was then dried and dissolved in water. mRNA was isolated from the whole RNAs as followings. In view of the fact that a poly A chain is attached to the 3′ terminus of mRNA, a polynucleotide having a poly T structure which was immobilized on the surface of latex beads was used to trap the mRNA, and then the mRNA was washed and eluted with spine column (Oligotex-dT30<Super>mRNA Purification Kit, Takara). Reverse transcription of the mRNA was conducted with a reverse transcriptase (Super Script II Reverse Transcriptase; catalogue No. 18064-014, GibcoBRL) using fluorescence-labeled nucleotides to give cDNAs that were introduced with Cy3-dUTP or Cy5-dUTP during the reverse transcription.
The labeled cDNAs were dissolved in TE buffer (10 mM Tris-HCl/1 mM EDTA, pH8.0), and the solution was dropped on the DNA chip containing the whole genes of yeast (DNA Chip Research Inc. Japan) so that the cDNAs were hybridized on the DNA chip at 65° C. for over 12 hours. The fluoresces intensity of the DNA chip was read with a scanner, and the ratio relative to the fluorescence intensity resulting from the absence of chemical substance was estimated as the following, which is shown in Tables 1 to 9: [formula]
In the Tables, “Intensity” indicated in the rightmost column is a value of the level of expressed mRNA of each gene in control cells as divided by the average level of the expressions of the whole genes.

Substance: sodium dodecylbenzosulfonate [(17)]
- The level of expressed mRNA in the presence of chemical substance/ (yeast gene YNL240C): 0.8
- The level of expressed mRNA in the presence of chemical substance/in the absence of chemical substance (yeast gene YNL241C): 1.0
- The level of expressed mRNA in the presence of chemical substance/ (ratio to absence) (yeast gene YNL259C): 2.6
- The level of expressed mRNA in the presence of chemical substance/ (yeast gene YNL260C): 0.9
- The level of expressed mRNA in the presence of chemical substance/in the absence of chemical substance (yeast gene YNL274C): 1.4
- The level of expressed mRNA in the presence of chemical substance/ (yeast gene YNL285W): 1.2
- The level of expressed mRNA in the presence of chemical substance/ (yeast gene YNL293W): 1.0
- The level of expressed mRNA in the presence of chemical substance/in the absence of chemical substance (yeast gene YNL331C): 1.7
- The level of expressed mRNA in the presence of chemical substance/in the absence of chemical substance (yeast gene YNL332W): 1.0
- The level of expressed mRNA in the presence of chemical substance/The level of expressed mRNA in the absence of chemical substance (yeast gene YNL333W): 1.4
- The level of expressed mRNA in the presence of chemical substance/The level of expressed mRNA in the absence of chemical substance (yeast gene YNR010W): 1.7
- The level of expressed mRNA in the presence of chemical substance/ (yeast gene YNR061C): 1.6
- The level of expressed mRNA in the presence of chemical substance/The level of expressed mRNA in the absence of chemical substance (yeast gene YNR069C): 1.1
- The level of expressed mRNA in the presence of chemical substance/ (in its absence), gene YNR072W (yeast gene YNR072W, ratio of DNA chip fluorescence intensity to that without chemical substance): 1.3
- The level of expressed mRNA in the presence of chemical substance/ (yeast gene YNR074C): 0.9
- The level of expressed mRNA in the presence of chemical substance/ (ratio to absence of chemical substance) (yeast gene YNR076W): 1.5
- The level of expressed mRNA in the presence of chemical substance/The level of expressed mRNA in the absence of chemical substance (yeast gene YOL013C): 1.1
- The level of expressed mRNA in the presence of chemical substance/ (yeast gene YOL084W): 1.3
- The level of expressed mRNA in the presence of chemical substance/ (ratio to absence), gene YOL096C (yeast gene YOL096C, mitochondria-located protein genes, 2 h culture with chemical): 1.2
- The level of expressed mRNA in the presence of chemical substance/ (in its absence), gene YOL096C (yeast gene YOL096C, ratio of DNA chip fluorescence intensity to that without chemical substance): 1.2
- The level of expressed mRNA in the presence of chemical substance/ (in its absence), gene YOL108C (yeast gene YOL108C, ratio of DNA chip fluorescence intensity to that without chemical substance): 1.5
- The level of expressed mRNA in the presence of chemical substance/ (in its absence), gene YOL116W (yeast gene YOL116W, ratio of DNA chip fluorescence intensity to that without chemical substance): 1.1
- The level of expressed mRNA in the presence of chemical substance/ (ratio to absence) (yeast gene YOL119C): 1.4
- The level of expressed mRNA in the presence of chemical substance/in the absence of chemical substance (yeast gene YOL151W): 4.0
- The level of expressed mRNA in the presence of chemical substance/ (ratio to absence) (yeast gene YOL158C): 1.4
- The level of expressed mRNA in the presence of chemical substance/ (yeast gene YOL159C): 2.0
- The level of expressed mRNA in the presence of chemical substance/ (ratio to absence of chemical substance) (yeast gene YOL161C): 1.1
- The level of expressed mRNA in the presence of chemical substance/ (ratio to absence) (yeast gene YOL163W): 0.8
- The level of expressed mRNA in the presence of chemical substance/The level of expressed mRNA in the absence of chemical substance (yeast gene YOL164W): 1.1
- The level of expressed mRNA in the presence of chemical substance/in the absence of chemical substance (yeast gene YOL165C): 1.6
- The level of expressed mRNA in the presence of chemical substance/ (yeast gene YOR007C): 1.2
- The level of expressed mRNA in the presence of chemical substance/ (ratio to absence of chemical substance) (yeast gene YOR008C): 0.8
- The level of expressed mRNA in the presence of chemical substance/ (ratio to absence of chemical substance) (yeast gene YOR009W): 0.9
- The level of expressed mRNA in the presence of chemical substance/ (ratio to absence of chemical substance) (yeast gene YOR010C): 1.4
- The level of expressed mRNA in the presence of chemical substance/ (ratio to absence) (yeast gene YOR035C): 1.6
- The level of expressed mRNA in the presence of chemical substance/The level of expressed mRNA in the absence of chemical substance (yeast gene YOR036W): 1.6
- The level of expressed mRNA in the presence of chemical substance/ (in its absence), gene YOR103C (yeast gene YOR103C, ratio of DNA chip fluorescence intensity to that without chemical substance): 1.1
- The level of expressed mRNA in the presence of chemical substance/The level of expressed mRNA in the absence of chemical substance (yeast gene YOR117W): 1.4
- The level of expressed mRNA in the presence of chemical substance/in the absence of chemical substance (yeast gene YOR120W): 1.3
- The level of expressed mRNA in the presence of chemical substance/The level of expressed mRNA in the absence of chemical substance (yeast gene YOR124C): 1.0
- The level of expressed mRNA in the presence of chemical substance/ (ratio to absence) (yeast gene YOR130C): 1.5
- The level of expressed mRNA in the presence of chemical substance/The level of expressed mRNA in the absence of chemical substance (yeast gene YOR132W): 1.2
- The level of expressed mRNA in the presence of chemical substance/in the absence of chemical substance (yeast gene YOR153W): 2.5
- The level of expressed mRNA in the presence of chemical substance/The level of expressed mRNA in the absence of chemical substance (yeast gene YOR157C): 1.2
- The level of expressed mRNA in the presence of chemical substance/ (in its absence), gene YOR180C (yeast gene YOR180C, ratio of DNA chip fluorescence intensity to that without chemical substance): 0.9
- The level of expressed mRNA in the presence of chemical substance/The level of expressed mRNA in the absence of chemical substance (yeast gene YOR181W): 1.1
- The level of expressed mRNA in the presence of chemical substance/The level of expressed mRNA in the absence of chemical substance (yeast gene YOR185C): 0.9
